Results as given in ChEMBL document CHEMBL5244223, “l,8-Naphthalimide based DNA intercalators and anticancer agents. A systematic review from 2007 to 2017” (Eur J Med Chem, 2018).
≈ marks a conversion by molar mass, not a printed value.

Legend:
[1] = Antiproliferative activity against human HMEC-1 cells assessed as inhibition of cell proliferation incubated for 48 hrs by coulter counter assay; assay type: toxicity, cell-based
[2] = tested on: CCRF-CEM; assay: Antiproliferative activity against human CEM cells assessed as inhibition of cell proliferation incubated for 48 hrs by coulter counter assay; assay type: functional, cell-based
[3] = tested on: HeLa; assay: Antiproliferative activity against human HeLa cells assessed as inhibition of cell proliferation incubated for 48 hrs by coulter counter assay; assay type: functional, cell-based
[4] = tested on: L1210; assay: Antiproliferative activity against mouse L1210 cells assessed as inhibition of cell proliferation incubated for 48 hrs by coulter counter assay; assay type: functional, cell-based; conditions: L1210, 48 h
[5] = tested on: Calf thymus DNA; assay: Binding affinity to calf thymus DNA assessed as DNA intercalation by measuring change in melting temperature by thermal denaturation assay; assay type: nucleic-acid assay; conditions: Bos taurus
[6] = tested on: Pseudomonas aeruginosa; assay: Antibacterial activity against Pseudomonas aeruginosa MTCC 741 assessed as inhibition of bacterial growth by agar well diffusion assay; assay type: functional
[7] = tested on: Escherichia coli; assay: Antibacterial activity against Escherichia coli MTCC 443 assessed as inhibition of bacterial growth by agar well diffusion assay; assay type: functional
[8] = tested on: Staphylococcus aureus; assay: Antibacterial activity against Staphylococcus aureus MTCC 96 assessed as inhibition of bacterial growth by agar well diffusion assay; assay type: functional
[9] = tested on: Staphylococcus epidermidis; assay: Antibacterial activity against Staphylococcus epidermidis MTCC 435 assessed as inhibition of bacterial growth by agar well diffusion assay; assay type: functional
[10] = tested on: A549; assay: Cytotoxicity against human A549 cells assessed as inhibition of cell growth incubated for 48 hrs by MTT assay; assay type: functional, cell-based; conditions: A549, 48 h
[11] = tested on: K562; assay: Cytotoxicity against human K562 cells assessed as inhibition of cell growth incubated for 48 hrs by MTT assay; assay type: functional, cell-based; conditions: K562, 48 h
[12] = tested on: HeLa; assay: Cytotoxicity against human HeLa cells assessed as inhibition of cell growth incubated for 48 hrs by MTT assay; assay type: functional, cell-based

Row | Structure (SMILES) | IC50 at 48 h [1] [µM] | IC50 [2] [µM] | IC50 [3] [µM] | IC50 [4] [µM] | further results
1 | CCOP(=O)(CCCCn1cc(CN2C(=O)c3cccc4cccc(c34)C2=O)nn1)OCC | > 250 | > 250 | > 250 | > 250 | 
2 | CCOP(=O)(CCn1cc(CN2C(=O)c3cccc4c(Br)ccc(c34)C2=O)nn1)OCC | > 250 | > 250 | > 250 | > 250 | 
3 | O=C1c2cccc3cccc(c23)C(=O)N1c1nc(-c2cc3cc(Br)ccc3oc2=O)cs1 |  |  |  |  | ΔTm [5]: 0.1 °C; MIC [6]: 18.8 µg/mL (≈ 37.3 µM); MIC [7]: 18.8 µg/mL (≈ 37.3 µM); MIC [8]: 18.8 µg/mL (≈ 37.3 µM); MIC [9]: 18.8 µg/mL (≈ 37.3 µM)
4 | CN(C)CCN1C(=O)c2cccc3cc(NC(=O)CCN)cc(c23)C1=O |  |  |  |  | IC50 [10]: 4.7 µM; IC50 [11]: 8.5 µM; IC50 [12]: 21.5 µM
5 | CCOP(=O)(Cn1cc(CN2C(=O)c3cccc4c(Br)ccc(c34)C2=O)nn1)OCC | > 250 | > 250 | > 250 | > 250 | 
6 | CCOP(=O)(CC(O)Cn1cc(CN2C(=O)c3cccc4c(Br)ccc(c34)C2=O)nn1)OCC (stereo unspecified) | > 250 | > 250 | > 250 | > 250 | 
7 | CN(C)CCN1C(=O)c2cccc3cc(NC(=O)CCCCCN)cc(c23)C1=O |  |  |  |  | IC50 [10]: 4.7 µM; IC50 [11]: 8.5 µM; IC50 [12]: 21.5 µM
8 | O=C1c2cccc3cccc(c23)C(=O)N1c1nc(-c2cc3ccccc3oc2=O)cs1 |  |  |  |  | ΔTm [5]: 0.1 °C; MIC [6]: 18.8 µg/mL (≈ 44.2 µM); MIC [7]: 18.8 µg/mL (≈ 44.2 µM); MIC [8]: 18.8 µg/mL (≈ 44.2 µM); MIC [9]: 18.8 µg/mL (≈ 44.2 µM)
9 | CCOP(=O)(CCCCn1cc(CN2C(=O)c3cccc4cc([N+](=O)[O-])cc(c34)C2=O)nn1)OCC | > 250 | > 250 | > 250 | > 250 | 
10 | CN(C)CCN1C(=O)c2cccc3cc(NC(=O)CCNC(=O)C(Cl)Cl)cc(c23)C1=O |  |  |  |  | IC50 [10]: 4.7 µM; IC50 [11]: 8.5 µM; IC50 [12]: 21.5 µM
11 | CCOP(=O)(CCOCn1cc(CN2C(=O)c3cccc4cc([N+](=O)[O-])cc(c34)C2=O)nn1)OCC | > 250 | > 250 | > 250 | > 250 | 
12 | CCOP(=O)(CC(=O)NCn1cc(CN2C(=O)c3cccc4c(Br)ccc(c34)C2=O)nn1)OCC | > 250 | > 250 | > 250 | > 250 | 
13 | CCOP(=O)(CC(=O)NCn1cc(CN2C(=O)c3cccc4cccc(c34)C2=O)nn1)OCC | > 250 | > 250 | > 250 | > 250 | 
14 | O=C1c2cccc3cccc(c23)C(=O)N1c1nc(-c2cc3cc(Br)cc(Br)c3oc2=O)cs1 |  |  |  |  | ΔTm [5]: 0.1 °C; MIC [6]: 18.8 µg/mL (≈ 32.2 µM); MIC [7]: 18.8 µg/mL (≈ 32.2 µM); MIC [8]: 18.8 µg/mL (≈ 32.2 µM); MIC [9]: 18.8 µg/mL (≈ 32.2 µM)
15 | CN(C)CCN1C(=O)c2cccc3cc(NC(=O)CN)cc(c23)C1=O |  |  |  |  | IC50 [10]: 4.7 µM; IC50 [11]: 8.5 µM; IC50 [12]: 21.5 µM
16 | O=C(O)c1cn(C2CC2)c2cc(N3CCNCC3)c(F)cc2c1=O [CIPROFLOXACIN] |  |  |  |  | MIC [6]: 18.8 µg/mL (≈ 56.6 µM); MIC [7]: 18.8 µg/mL (≈ 56.6 µM); MIC [8]: 18.8 µg/mL (≈ 56.6 µM); MIC [9]: 18.8 µg/mL (≈ 56.6 µM)
17 | CCOP(=O)(CCn1cc(CN2C(=O)c3cccc4cc([N+](=O)[O-])cc(c34)C2=O)nn1)OCC | > 250 | > 250 | > 250 | > 250 | 
18 | CCOP(=O)(CC(O)Cn1cc(CN2C(=O)c3cccc4cc([N+](=O)[O-])cc(c34)C2=O)nn1)OCC (stereo unspecified) | > 250 | > 250 | > 250 | > 250 | 
